Experimental data published in PubChem BioAssay AID1918942 (Molecular Pharmacology Branch, DTP, NCI, 2023).

Test system: 743489-274-T-PDC complex spheroid viability
Experiment: Anticancer human tumor 743489-274-T-PDC patient-derived renal cell carcinoma cell line growth inhibition
Details: for IC50: curve of first compound; for viability, T/C: stronger effect = lower value
Description: Multicellular complex tumor spheroid response to LSD1 Inhibitor Iadademstat in combination with a variety of drugs and investigational agents in selected tumor cell lines
The current study was undertaken to assess response to LSD1 inhibitors in combination with standard-of-care drugs and investigational agents in solid tumor complex spheroid models as well as in the K-562 leukemia. Complex spheroids include a stromal component modeled by human endothelial cells (HUVEC) and fibroblasts modeled by human mesenchymal stem cells (MSCs). The concentration ranges selected for each drug and investigational agent were based upon clinically achievable concentrations if the clinical Cmax of the agent was known.
Compounds. The drugs and investigational agents used in this study are listed on Table 1. All of the agents used, including staurosporine (NSC755774) and gemcitabine (NSC613327), were obtained from the Developmental Therapeutics Program, NCI. FDA-approved anticancer drugs are available from the NCI at http://dtp.nci.nih.gov/branches/dscb/oncology_drugset_explanation.html. Drugs and investigational agents were >95% pure by proton nuclear magnetic resonance (NMR) and liquid chromatography/mass spectrometry (LC/MS). Stock solutions were prepared at 400x in DMSO, stored at -70 degrees C, and diluted in fresh medium prior to their use. The final concentration of DMSO in cell culture wells never exceeded 0.25% (v/v). The FDA-approved anticancer drug set is available from the Developmental Therapeutics Program at https://dtp.cancer.gov/organization/dscb/obtaining/available_plates.htm. All drugs and investigational agents were tested over a range starting from a high concentration at or near the clinical Cmax and decreasing in half-log increments. If the clinical Cmax for an agent had not been determined, the highest concentration tested was 10 microM.
Cell Lines. The patient-derived cancer cell (PDC) lines: 292921-168-R-J2-PDC, K24384-001-R-PDC, and 521955-158-R2-J5-PDC pancreatic carcinomas, 556581-035-R-J1 ovarian carcinoma, 324938-238-R-J1-PDC, 855422-203-R-J1-PDC and 883617-216-R-J1-PDC urothelial bladder carcinomas, 743489-274-T-PDC renal cell carcinoma, 138582-R-J1 Merkel cell tumor, K60290-347-R-J1 and K57222-313-R-J1-PDC glioblastomas, 653999-131-R-J2-PDC, LG0703-F948-PDC, and 349418-098-R-PDC non-small cell lung carcinomas, 885512-296-R-J2-PDC, 171881-019-R-J1-PDC breast carcinomas and 186277-243-T-J2-PDC and 233499-124-R-J2-PDC colon carcinomas were obtained from the NCI Patient-Derived Models Repository (PDMR, https://pdmr.cancer.gov). The established cell lines NCI/ADR-RES (RRID:CVCL_14520 and OVCAR-5 (RRID:CVCL_1628) ovarian carcinomas, 786-O (RRID:CVCL_1051) and A498 (RRID:CVCL_A498) renal cell carcinoma, NCI-H211 (ATCC, cat. CRL-5824; RRID:CVCL_1529), NCI-H196 (ATCC, cat. CRL-5823, RRID:CVCL_1509), SW 1271 (ATCC, cat. CRL-2177, RRID:CVCL_1716) and NCI-H1876 (ATCC, cat. CRL-5902, RRID:CVCL_1503) small cell lung carcinomas, MDA-MB-231 (RRID:CVCL_0062) and MDA-MB-468 (RRID:CVCL_0419)breast carcinomas (10-12). Pooled donor human umbilical vein endothelial cells (HUVEC, Lonza, cat. CC-2519) and human mesenchymal stem cells (hMSC, Lonza, cat. PT-2501) were purchased from Lonza (Walkersville, MD).
Cell Culture. All cells were maintained in an incubator at 37 degrees C and 5% CO2 with 95% humidity. The PDC lines were cultured according to standard operating procedures established by the NCI PDMR (https://pdmr.cancer.gov). Briefly all PDCs were thawed and cultured in Matrigel-coated flasks prepared with a working solution of 1X Ham's F-12 nutrient mix, without supplementation (Invitrogen, Waltham, MA, cat. 11765054), 100 U/mL penicillin-streptomycin (Invitrogen, cat. 15140122), and 2.5% Matrigel (Corning Inc., Corning, NY, cat. 354248) for the first three passages. […]
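Note: spheroids exposed to compounds for 7 days before readout.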
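Throughout, for viability, T/C: 100% = DMSO vehicle control wells.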

Compound: COc1cc(C2c3cc4c(cc3C(OC3OC5COC(C)OC5C(O)C3O)C3COC(=O)C23)OCO4)cc(OC)c1O (stereo not given) + NC1CC1c1ccc(-c2cccc(O)c2)cc1
- IC50 (second compound 0.1 µM): > 3000 nM
- IC50 (second compound 0.316 µM): > 3000 nM
- IC50 (second compound 1 µM): > 3000 nM
- IC50 (second compound 3.16 µM): > 3000 nM
- IC50 (second compound 10 µM): > 3000 nM
- viability, T/C (second compound 0.1 µM, first compound 0.00949 µM): 107%
- viability, T/C (second compound 0.1 µM, first compound 0.03 µM): 91.7%
- viability, T/C (second compound 0.1 µM, first compound 0.0949 µM): 98%
- viability, T/C (second compound 0.1 µM, first compound 0.3 µM): 88.7%
- viability, T/C (second compound 0.1 µM, first compound 0.949 µM): 77.6%
- viability, T/C (second compound 0.1 µM, first compound 3 µM): 76.9%
- viability, T/C (second compound 0.316 µM, first compound 0.00949 µM): 103%
- viability, T/C (second compound 0.316 µM, first compound 0.03 µM): 99.5%
- viability, T/C (second compound 0.316 µM, first compound 0.0949 µM): 91.9%
- viability, T/C (second compound 0.316 µM, first compound 0.3 µM): 76.7%
- viability, T/C (second compound 0.316 µM, first compound 0.949 µM): 74.6%
- viability, T/C (second compound 0.316 µM, first compound 3 µM): 79.7%
- viability, T/C (second compound 1 µM, first compound 0.00949 µM): 92.8%
- viability, T/C (second compound 1 µM, first compound 0.03 µM): 104%
- viability, T/C (second compound 1 µM, first compound 0.0949 µM): 91.5%
- viability, T/C (second compound 1 µM, first compound 0.3 µM): 92.2%
- viability, T/C (second compound 1 µM, first compound 0.949 µM): 85.8%
- viability, T/C (second compound 1 µM, first compound 3 µM): 76.5%
- viability, T/C (second compound 3.16 µM, first compound 0.00949 µM): 87.9%
- viability, T/C (second compound 3.16 µM, first compound 0.03 µM): 95.2%
- viability, T/C (second compound 3.16 µM, first compound 0.0949 µM): 87.6%
- viability, T/C (second compound 3.16 µM, first compound 0.3 µM): 87.5%
- viability, T/C (second compound 3.16 µM, first compound 0.949 µM): 78.6%
- viability, T/C (second compound 3.16 µM, first compound 3 µM): 79.3%
- viability, T/C (second compound 10 µM, first compound 0.00949 µM): 97.2%
- viability, T/C (second compound 10 µM, first compound 0.03 µM): 89.9%
- viability, T/C (second compound 10 µM, first compound 0.0949 µM): 97%
- viability, T/C (second compound 10 µM, first compound 0.3 µM): 83.9%
- viability, T/C (second compound 10 µM, first compound 0.949 µM): 80.7%
- viability, T/C (second compound 10 µM, first compound 3 µM): 70.4%

Compound: Nc1ncn(C2CC(O)C(CO)O2)c(=O)n1 (stereo not given) + NC1CC1c1ccc(-c2cccc(O)c2)cc1
- IC50 (second compound 0.1 µM): > 1000 nM
- IC50 (second compound 0.316 µM): > 1000 nM
- IC50 (second compound 1 µM): > 1000 nM
- IC50 (second compound 3.16 µM): > 1000 nM
- IC50 (second compound 10 µM): > 1000 nM
- viability, T/C (second compound 0.1 µM, first compound 0.00316 µM): 109%
- viability, T/C (second compound 0.1 µM, first compound 0.01 µM): 101%
- viability, T/C (second compound 0.1 µM, first compound 0.0316 µM): 97.9%
- viability, T/C (second compound 0.1 µM, first compound 0.1 µM): 95.1%
- viability, T/C (second compound 0.1 µM, first compound 0.316 µM): 91.2%
- viability, T/C (second compound 0.1 µM, first compound 1 µM): 117%
- viability, T/C (second compound 0.316 µM, first compound 0.00316 µM): 104%
- viability, T/C (second compound 0.316 µM, first compound 0.01 µM): 101%
- viability, T/C (second compound 0.316 µM, first compound 0.0316 µM): 97.7%
- viability, T/C (second compound 0.316 µM, first compound 0.1 µM): 91.5%
- viability, T/C (second compound 0.316 µM, first compound 0.316 µM): 102%
- viability, T/C (second compound 0.316 µM, first compound 1 µM): 95.3%
- viability, T/C (second compound 1 µM, first compound 0.00316 µM): 107%
- viability, T/C (second compound 1 µM, first compound 0.01 µM): 110%
- viability, T/C (second compound 1 µM, first compound 0.0316 µM): 94.1%
- viability, T/C (second compound 1 µM, first compound 0.1 µM): 89.6%
- viability, T/C (second compound 1 µM, first compound 0.316 µM): 90%
- viability, T/C (second compound 1 µM, first compound 1 µM): 93%
- viability, T/C (second compound 3.16 µM, first compound 0.00316 µM): 93.2%
- viability, T/C (second compound 3.16 µM, first compound 0.01 µM): 102%
- viability, T/C (second compound 3.16 µM, first compound 0.0316 µM): 105%
- viability, T/C (second compound 3.16 µM, first compound 0.1 µM): 88.2%
- viability, T/C (second compound 3.16 µM, first compound 0.316 µM): 82.5%
- viability, T/C (second compound 3.16 µM, first compound 1 µM): 86.8%
- viability, T/C (second compound 10 µM, first compound 0.00316 µM): 102%
- viability, T/C (second compound 10 µM, first compound 0.01 µM): 126%
- viability, T/C (second compound 10 µM, first compound 0.0316 µM): 104%
- viability, T/C (second compound 10 µM, first compound 0.1 µM): 99.7%
- viability, T/C (second compound 10 µM, first compound 0.316 µM): 83.2%
- viability, T/C (second compound 10 µM, first compound 1 µM): 88.6%
